Tested on: T1, CelA-SSO1949-CelA
T1 construct: 70 aa CelA + 163 aa SSO1949 + 29 aa CelA, 262 aa, ~29 kDa, no purification tag
Assay: FRET fluorescence assay, initial rates
Format: biochemical, Thermotoga maritima; Saccharolobus solfataricus
Conditions: 80°C; pH 3; 0.1 M sodium phosphate
From the text: FRET fluorescence assay, initial rates on CelA-SSO1949-CelA

CN(C)c1ccc(/N=N/c2ccc(NC(=S)N[C@H]3[C@H](O)[C@@H](O)[C@H](O[C@H]4[C@H](O)[C@@H](O)[C@H](O[C@H]5[C@H](O)[C@@H](O)[C@H](O[C@H]6[C@H](O)[C@@H](O)[C@H](O[C@H]7[C@H](O)[C@@H](O)[C@H](O[C@H]8[C@H](O)[C@@H](O)[C@H](SCC(=O)NCCNc9cccc%10c(S(=O)(=O)O)cccc9%10)O[C@@H]8CO)O[C@@H]7CO)O[C@@H]6CO)O[C@@H]5CO)O[C@@H]4CO)O[C@@H]3CO)cc2)cc1 [fluorescent cellohexaoside, sodium N-{2-N-[(S-(4-deoxy-4-dimethylamino-phenylazophenylthioureido-β-D-glucopyranosyl)-(1→4)-β-D-glucopyranosyl-(1→4)-β-D-glucopyranosyl-(1→4)-β-D-glucopyranosyl-(1→4)-β-D-glucopyranosyl-(1→4)-β-D-glucopyranosyl)-2-thioacetyl]aminoethyl}-1-naphthylamine-5-sulphonate]
Km: 1.74 ± 0.15 µM
